Measured values as given in publication PMC11859928, “Design, Synthesis, and Antiproliferative Activity of Novel Indole/1,2,4-Triazole Hybrids as Tubulin Polymerization Inhibitors” (Pharmaceuticals, 2025).

How the values were obtained:
Type in all cases: cell-based, human
MOLT-4 = assay: NCI five-dose assay; conditions: MOLT-4, Leukemia
OVCAR-4 = assay: NCI five-dose assay; conditions: OVCAR-4, Ovarian cancer
CCRF-CEM = assay: NCI five-dose assay; conditions: Leukemia
NCI-H322M = assay: NCI five-dose assay; conditions: Non-small cell lung cancer
Ovarian cancer subpanel = assay: NCI five-dose assay, subpanel mean
Colon cancer subpanel = assay: NCI five-dose assay, subpanel mean
SN12C = assay: NCI five-dose assay; conditions: Renal cancer
NCI-H226 = assay: NCI five-dose assay; conditions: NCI-H226, Non-small cell lung cancer
IGROV1 = assay: NCI five-dose assay; conditions: IGROV1, Ovarian cancer
[1] = system: Non-small cell lung cancer subpanel; assay: NCI five-dose assay, subpanel mean
HL-60(TB) = assay: NCI five-dose assay; conditions: Leukemia
MDA/MB-231-ATCC = assay: NCI five-dose assay; conditions: Breast cancer
A549/ATCC = assay: NCI five-dose assay; conditions: Non-small cell lung cancer
HOP-92 = assay: NCI five-dose assay; conditions: HOP-92, Non-small cell lung cancer
MDA-MB-468 = assay: NCI five-dose assay; conditions: MDA-MB-468, Breast cancer
CAKI-1 = assay: NCI five-dose assay; conditions: CAKI-1, Renal cancer
ACHN = assay: NCI five-dose assay; conditions: Renal cancer
RPMI-8226 = assay: NCI five-dose assay; conditions: RPMI-8226, Leukemia
BT-549 = assay: NCI five-dose assay; conditions: BT-549, Breast cancer
SF-539 = assay: NCI five-dose assay; conditions: SF-539, CNS cancer
HS 578T = assay: NCI five-dose assay; conditions: Breast cancer
RXF393 = assay: NCI five-dose assay; conditions: RXF393, Renal cancer
Leukemia subpanel = assay: NCI five-dose assay, subpanel mean
M14 = assay: NCI five-dose assay; conditions: M14, Melanoma
Renal cancer subpanel = assay: NCI five-dose assay, subpanel mean
A498 = assay: NCI five-dose assay; conditions: A498, Renal cancer
U251 = assay: NCI five-dose assay; conditions: U251, CNS cancer
[2] = Homo sapiens, read-out: GI50 Conc. per Cell Lines
[3] = Homo sapiens, 48 h, read-out: LC50 (the source's name)

Cc1ccc(/C(CSc2nnc(-c3c[nH]c4ccccc34)n2-c2ccccc2)=N/O)cc1 [Compound 7h, (Z)-2-((5-(1H-Indol-3-yl)-4-phenyl-4H-1,2,4-triazol-3-yl)thio)-1-(p-tolyl)ethanone Oxime]
GI50 (MOLT-4; [2]): 2040 nM | TGI Conc. per Cell Lines (MOLT-4): 4.23 µM | LC50 (OVCAR-4; Homo sapiens, 48 h): 7.04 µM | GI50 (OVCAR-4; [2]): 1750 nM | TGI Conc. per Cell Lines (OVCAR-4): 3.51 µM | CC50 (CCRF-CEM; [3]): > 100 µM | GI50 (CCRF-CEM; [2]): 2140 nM | TGI Conc. per Cell Lines (CCRF-CEM): 4.98 µM | CC50 (NCI-H322M; [3]): > 100 µM | GI50 (NCI-H322M; [2]): 3.54 µM | TGI Conc. per Cell Lines (NCI-H322M): 19.80 µM | GI50 (Ovarian cancer subpanel; Homo sapiens, average sensitivity of all cell lines of the Ovarian cancer subpanel, read-out: GI50 Subpanel MID b): 2240 nM | GI50 Selectivity Ratio (MID a/MID b) (Ovarian cancer subpanel; Ovarian cancer subpanel): 1.34 | GI50 Selectivity Ratio (MID a/MID b) (Colon cancer subpanel; Colon cancer subpanel): 0.959 | GI50 (Colon cancer subpanel; Homo sapiens, average sensitivity of all cell lines of the Colon cancer subpanel, read-out: GI50 Subpanel MID b): 3.13 µM | CC50 (SN12C; [3]): 36.7 µM | GI50 (SN12C; [2]): 2330 nM | TGI Conc. per Cell Lines (SN12C): 6.80 µM | CC50 (NCI-H226; [3]): 6.91 µM | GI50 (NCI-H226; [2]): 1630 nM | TGI Conc. per Cell Lines (NCI-H226): 3.36 µM | CC50 (IGROV1; Homo sapiens, IGROV-1, 48 h, read-out: LC50 (the source's name)): 9.07 µM | GI50 (IGROV1; Homo sapiens, IGROV-1, read-out: GI50 Conc. per Cell Lines): 2090 nM | TGI Conc. per Cell Lines (IGROV1): 4.35 µM | GI50 ([1]; Homo sapiens, average sensitivity of all cell lines of the Non-small cell lung cancer subpanel, read-out: GI50 Subpanel MID b): 4.44 µM | GI50 Selectivity Ratio (MID a/MID b) ([1]; Non-small cell lung cancer subpanel): 0.68 | GI50 (HL-60(TB); [2]): 1920 nM | TGI Conc. per Cell Lines (HL-60(TB)): 3.96 µM | TGI Conc. per Cell Lines (MDA/MB-231-ATCC): 3.33 µM | LC50 (MDA/MB-231-ATCC; Homo sapiens, 48 h): 6.27 µM | GI50 (MDA/MB-231-ATCC; [2]): 1770 nM | CC50 (A549/ATCC; [3]): > 100 µM | GI50 (A549/ATCC; [2]): 3.55 µM | TGI Conc. per Cell Lines (A549/ATCC): 69.70 µM | TGI Conc. per Cell Lines (HOP-92): 37.40 µM | CC50 (HOP-92; [3]): > 100 µM | GI50 (HOP-92; [2]): 11.9 µM | LC50 (MDA-MB-468; Homo sapiens, 48 h): 5.64 µM | GI50 (MDA-MB-468; [2]): 1500 nM | TGI Conc. per Cell Lines (MDA-MB-468): 2.91 µM | TGI Conc. per Cell Lines (CAKI-1): 3.06 µM | LC50 (CAKI-1; Homo sapiens, 48 h): 5.74 µM | GI50 (CAKI-1; [2]): 1630 nM | LC50 (ACHN; Homo sapiens, 48 h): 6.26 µM | GI50 (ACHN; [2]): 1790 nM | TGI Conc. per Cell Lines (ACHN): 3.35 µM | CC50 (RPMI-8226; [3]): > 100 µM | GI50 (RPMI-8226; [2]): 2050 nM | TGI Conc. per Cell Lines (RPMI-8226): 4.81 µM | TGI Conc. per Cell Lines (BT-549): 3.03 µM | CC50 (BT-549; [3]): 5.78 µM | GI50 (BT-549; [2]): 1590 nM | CC50 (SF-539; [3]): 9.43 µM | GI50 (SF-539; [2]): 2060 nM | TGI Conc. per Cell Lines (SF-539): 4.41 µM | TGI Conc. per Cell Lines (HS 578T): 4.82 µM | LC50 (HS 578T; Homo sapiens, 48 h): > 100 µM | GI50 (HS 578T; [2]): 2070 nM | LC50 (concentration killing 50% of cells) (RXF393; Homo sapiens, RXF 393, 48 h): 7.65 µM | GI50 (RXF393; Homo sapiens, RXF 393, read-out: GI50 Conc. per Cell Lines): 1850 nM | TGI Conc. per Cell Lines (RXF393): 3.76 µM | GI50 (Leukemia subpanel; Homo sapiens, average sensitivity of all cell lines of the Leukemia subpanel, read-out: GI50 Subpanel MID b): 2030 nM | GI50 Selectivity Ratio (MID a/MID b) (Leukemia subpanel; Leukemia subpanel): 1.47 | GI50 (M14; [2]): 1790 nM | TGI Conc. per Cell Lines (M14): 3.86 µM | GI50 (Renal cancer subpanel; Homo sapiens, average sensitivity of all cell lines of the Renal cancer subpanel, read-out: GI50 Subpanel MID b): 5.77 µM | GI50 Selectivity Ratio (MID a/MID b) (Renal cancer subpanel; Renal cancer subpanel): 0.52 | TGI Conc. per Cell Lines (A498): 89.10 µM | LC50 (A498; Homo sapiens, 48 h): > 100 µM | GI50 (A498; [2]): 24.1 µM | CC50 (U251; Homo sapiens, U-251, 48 h, read-out: LC50 (the source's name)): > 100 µM | GI50 (U251; Homo sapiens, U-251, read-out: GI50 Conc. per Cell Lines): 8.22 µM | TGI Conc. per Cell Lines (U251): >100 µM
